Biological target: T1, angiotensin II type 1 receptor (Oryctolagus cuniculus, UniProt P34976)
T1 construct: By using a specimen of isolated rabbit blood vessels; from tissue; host or cells: rabbit (New Zealand White) thoracic aorta ring
T1 sequence (P34976 1-359): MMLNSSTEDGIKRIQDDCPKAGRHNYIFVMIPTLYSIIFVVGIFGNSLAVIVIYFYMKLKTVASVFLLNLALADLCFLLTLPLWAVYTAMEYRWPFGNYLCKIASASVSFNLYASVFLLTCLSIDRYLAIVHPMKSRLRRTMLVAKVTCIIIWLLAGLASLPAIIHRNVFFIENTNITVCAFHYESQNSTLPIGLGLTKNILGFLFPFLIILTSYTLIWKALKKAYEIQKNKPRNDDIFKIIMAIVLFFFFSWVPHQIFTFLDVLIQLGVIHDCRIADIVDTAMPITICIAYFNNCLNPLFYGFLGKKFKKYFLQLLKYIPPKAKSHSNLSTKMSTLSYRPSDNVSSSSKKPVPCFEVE
Experiment: Angiotensin II receptor antagonistic activity in isolated rabbit blood vessels (thoracic aorta ring, angiotensin II-induced contraction)
Assay type: cell-based
Conditions: 0.1 μM test compound, angiotensin II (10 nM)-induced contraction, read-out: Angiotensin II activity inhibitiom rate (%) at 0.1 μM concentration
Description: By using a specimen of isolated rabbit blood vessels, antagonistic activity of the compounds of the invention against angiotensin II type 1 receptor was estimated from a dose-response curve of angiotensin II-induced blood vessel contraction. Specifically, the specimen of thoracic aorta ring of a rabbit (New Zealand White: male, 2.4 to 3.0 kg) was suspended in a magnus bath filled with Krebs-Henseleite buffer (composition: 118 mM NaCl, 4.7 mM KCl, 2.55 mM CaCl2, 1.18 mM MgSO4, 1.18 mM KH2PO4, 24.88 mM NaHCO3, and 11.1 mM D-glucose), and angiotensin II (10 nM)-induced contraction was obtained in the presence of the compounds of each test (1 nmol/L to 10 μmol/L). During the measurement, the inside temperature of the magnus bath was maintained at 37° C. and the bath was continuously ventilated with a sufficient amount of mixed gas (95% O2 and 5% CO2). The angiotensin II-induced contraction was converted into a relative value (%) that is based on the angiotensin II (0.1 μM)-induced contraction in the absence of the compounds of each example.

| SMILES | inhibition at 0.1 µM |
| --- | --- |
| CCCCc1nc(C)n(-c2ncc(OC)cn2)c(=O)c1Cc1ccc(-c2ccccc2-c2nnn[nH]2)nc1 [Example 1, 5-{{6-[2-(1H-tetrazol-5-yl)phenyl]pyridin-3-yl}methyl}-6-butyl-3-(5-methoxypyrimidin-2-yl)-2-methylpyrimidin-4(3H)-one] | 100% |
| CCCCc1nc(C)n(-c2ncc(OCC)cn2)c(=O)c1Cc1ccc(-c2ccccc2-c2nnn[nH]2)nc1 [Example 2, 5-{{6-[2-(1H-tetrazol-5-yl)phenyl]pyridin-3-yl}methyl}-6-butyl-3-(5-ethoxypyrimidin-2-yl)-2-methylpyrimidin-4(3H)-one] | 90.8% |
| CCCCc1nc(C)n(-c2ncc(OCCSC)cn2)c(=O)c1Cc1ccc(-c2ccccc2-c2nnn[nH]2)nc1 [Example 12, 5-{{6-[2-(1H-tetrazol-5-yl)phenyl]pyridin-3-yl}methyl}-6-butyl-2-methyl-3-{5-[2-(methylthio)ethoxy]pyrimidin-2-yl}pyrimidin-4(3H)-one] | 100% |
| CCCCc1nc(C)n(-c2ncc(OCCS(C)(=O)=O)cn2)c(=O)c1Cc1ccc(-c2ccccc2-c2nnn[nH]2)nc1 [Example 13, 5-{{6-[2-(1H-tetrazol-5-yl)phenyl]pyridin-3-yl}methyl}-6-butyl-2-methyl-3-{5-[2-(methylsulfonyl)ethoxy]pyrimidin-2-yl}pyrimidin-4(3H)-one] | 100% |
| CCCCc1nc(C)n(-c2ccccn2)c(=O)c1Cc1ccc(-c2ccccc2-c2noc(=O)[nH]2)nc1 [Example 14, 3-{2-{5-{[4-butyl-2-methyl-6-oxo-1-(pyridin-2-yl)-1,6-dihydropyrimidin-5-yl]methyl}pyridin-2-yl}phenyl}-1,2,4-oxadiazol-5(4H)-one] | 59.3% |
| CCCCc1nc(C)n(-c2cc(C)ccn2)c(=O)c1Cc1ccc(-c2ccccc2-c2noc(=O)[nH]2)nc1 [Example 15, 3-{2-{5-{[4-butyl-2-methyl-1-(4-methylpyridin-2-yl)-6-oxo-1,6-dihydropyrimidin-5-yl]methyl}pyridin-2-yl}phenyl}-1,2,4-oxadiazol-5(4H)-one] | 78.3% |
| CCCCc1nc(C)n(-c2ncc(OC)cn2)c(=O)c1Cc1ccc(-c2ccccc2-c2noc(=O)[nH]2)nc1 [Example 16, 3-{2-{5-{[4-butyl-1-(5-methoxypyrimidin-2-yl)-2-methyl-6-oxo-1,6-dihydropyrimidin-5-yl]methyl}pyridin-2-yl}phenyl}-1,2,4-oxadiazol-5(4H)-one] | 72.9% |
| CCCCc1nc(C)n(-c2ncc(OCC)cn2)c(=O)c1Cc1ccc(-c2ccccc2-c2noc(=O)[nH]2)nc1 [Example 17, 3-{2-{5-{[4-butyl-1-(5-ethoxypyrimidin-2-yl)-2-methyl-6-oxo-1,6-dihydropyrimidin-5-yl]methyl}pyridin-2-yl}phenyl}-1,2,4-oxadiazol-5(4H)-one] | 52.1% |
| CCCCc1nc(C2CC2)n(-c2ncc(OC)cn2)c(=O)c1Cc1ccc(-c2ccccc2-c2noc(=O)[nH]2)nc1 [Example 22, 3-{2-{5-{[4-butyl-2-cyclopropyl-1-(5-methoxypyrimidin-2-yl)-6-oxo-1,6-dihydropyrimidin-5-yl]methyl}pyridin-2-yl}phenyl}-1,2,4-oxadiazol-5(4H)-one] | 59.5% |
| CCCCc1nc(C)n(-c2ncc(OCCSC)cn2)c(=O)c1Cc1ccc(-c2ccccc2-c2noc(=O)[nH]2)nc1 [Example 28, 3-{2-{5-{{4-butyl-2-methyl-1-{5-[2-(methylthio)ethoxy]pyrimidin-2-yl}-6-oxo-1,6-dihydropyrimidin-5-yl}methyl}pyridin-2-yl}phenyl}-1,2,4-oxadiazol-5(4H)-one] | 86.5% |
| CCCCc1nc(C)n(-c2ncc(OCCS(C)(=O)=O)cn2)c(=O)c1Cc1ccc(-c2ccccc2-c2noc(=O)[nH]2)nc1 [Example 29, 3-{2-{5-{{4-butyl-2-methyl-1-{5-[2-(methylsulfonyl)ethoxy]pyrimidin-2-yl}-6-oxo-1,6-dihydropyrimidin-5-yl}methyl}pyridin-2-yl}phenyl}-1,2,4-oxadiazol-5(4H)-one] | 96.3% |

Biological target: T2, human PPARγ2 (Homo sapiens, UniProt P37231)
T2 construct: the amino acids 182 to 505 of human PPARγ2; expressed in transfected cells; host or cells: COS7 cells (African green monkey kidney)
T2 sequence (P37231 182-505): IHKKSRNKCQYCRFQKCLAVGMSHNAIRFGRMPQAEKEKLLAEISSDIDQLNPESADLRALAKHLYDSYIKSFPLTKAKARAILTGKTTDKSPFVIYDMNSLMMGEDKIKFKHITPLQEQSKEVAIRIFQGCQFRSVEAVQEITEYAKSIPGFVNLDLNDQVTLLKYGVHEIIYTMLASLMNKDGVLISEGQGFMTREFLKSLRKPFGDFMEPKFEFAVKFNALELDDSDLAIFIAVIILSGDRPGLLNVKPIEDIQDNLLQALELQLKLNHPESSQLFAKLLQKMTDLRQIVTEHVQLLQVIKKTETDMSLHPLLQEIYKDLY
Experiment: PPARγ activation activity, Gal4-PPARγ2 LBD luciferase transfection assay using COS7 cells
Assay type: cell-based
Conditions: Gal4-human PPARγ2 LBD chimera, 16 hours, rosiglitazone = 100%
Description: The agonistic activity of the compounds of the invention on PPARγ was measured based on the transfection assay using COS7 cells (DS Pharma Biomedical Co., Ltd., Osaka, Japan), which are the cell line derived from the kidney of the African green monkey. COS7 cells were cultured under 5% CO2 concentration, and DMEM medium containing 10% fetal bovine serum, glutamic acid, and antibiotics was used as a medium.
As an expression vector, a chimera in which DNA binding domain of Gal4, which is a yeast transcription factor, and ligand binding domain of human PPARγ2 are fused, i.e., a fused product between the amino acids 1 to 147 of Gal4 transcription factor and the amino acids 182 to 505 of human PPARγ2, was used. Furthermore, as a reporter vector, a firefly luciferase containing five copies of Gal4 recognition sequence in the promoter region was used. Plasmid transfection to the cells was performed according to a method which uses jetPEI (trade name, manufactured by Funakoshi Co., Ltd., Tokyo, Japan). Furthermore, β-galactosidase expression vector was employed as an internal standard.
After the transfection of the cells, the medium was replaced with a DMEM medium (containing 1% serum) added with the test compound, and the cells were further cultured for 16 hours. After that, the luciferase activity and β-galactosidase activity in the cell lysis solution were measured.
For the present test, dimethyl sulfoxide (DMSO) was used for dissolution and dilution of the test compounds, and during the cell treatment, the DMSO concentration in DMEM medium (containing 1% serum) was adjusted to 0.1%. As a positive compound, rosiglitazone (trade name, manufactured by ALEXIS Corporation, Switzerland) was used. The luciferase activity (%) of the test compounds (1 to 30 μmol/L) was calculated when the luciferase activity of rosiglitazone (3 to 10 μmol/L) is 100% and the luciferase activity in the absence of the test compound is 0%. The 50% effective concentration of the test compound (EC50, 50% effect concentration) was calculated by using SAS Preclinical Package Ver 5.0 (trade name, manufactured by SAS institute Japan Co., Tokyo, Japan), which is a statistical analysis program.
EC50 values of these compounds are described in Table 2. […] Under the same condition, the PPARγ activation activity of telmisartan, i.e., EC50, was 1 to 5 μM.

| SMILES | EC50 |
| --- | --- |
| CCCCc1nc(C(C)C)n(-c2ncc(OCC)cn2)c(=O)c1Cc1ccc(-c2ccccc2-c2nnn[nH]2)nc1 [Example 6, 5-{{6-[2-(1H-tetrazol-5-yl)phenyl]pyridin-3-yl}methyl}-6-butyl-3-(5-ethoxypyrimidin-2-yl)-2-isopropylpyrimidin-4(3H)-one] | 1360 nM |
| CCCCc1nc(C)n(-c2cc(C)ccn2)c(=O)c1Cc1ccc(-c2ccccc2-c2noc(=O)[nH]2)nc1 [Example 15, 3-{2-{5-{[4-butyl-2-methyl-1-(4-methylpyridin-2-yl)-6-oxo-1,6-dihydropyrimidin-5-yl]methyl}pyridin-2-yl}phenyl}-1,2,4-oxadiazol-5(4H)-one] | 3610 nM |
| CCCCc1nc(C)n(-c2ncc(OCC)cn2)c(=O)c1Cc1ccc(-c2ccccc2-c2noc(=O)[nH]2)nc1 [Example 17, 3-{2-{5-{[4-butyl-1-(5-ethoxypyrimidin-2-yl)-2-methyl-6-oxo-1,6-dihydropyrimidin-5-yl]methyl}pyridin-2-yl}phenyl}-1,2,4-oxadiazol-5(4H)-one] | 3120 nM |
| CCCCc1nc(CC)n(-c2ncc(OC)cn2)c(=O)c1Cc1ccc(-c2ccccc2-c2noc(=O)[nH]2)nc1 [Example 18, 3-{2-{5-{[4-butyl-2-ethyl-1-(5-methoxypyrimidin-2-yl)-6-oxo-1,6-dihydropyrimidin-5-yl]methyl}pyridin-2-yl}phenyl}-1,2,4-oxadiazol-5(4H)-one] | 3390 nM |
| CCCCc1nc(CC)n(-c2ncc(OCC)cn2)c(=O)c1Cc1ccc(-c2ccccc2-c2noc(=O)[nH]2)nc1 [Example 19, 3-{2-{5-{[4-butyl-1-(5-ethoxypyrimidin-2-yl)-2-ethyl-6-oxo-1,6-dihydropyrimidin-5-yl]methyl}pyridin-2-yl}phenyl}-1,2,4-oxadiazol-5(4H)-one] | 1500 nM |
| CCCCc1nc(C(C)C)n(-c2ncc(OC)cn2)c(=O)c1Cc1ccc(-c2ccccc2-c2noc(=O)[nH]2)nc1 [Example 20, 3-{2-{5-{[4-butyl-2-isopropyl-1-(5-methoxypyrimidin-2-yl)-6-oxo-1,6-dihydropyrimidin-5-yl]methyl}pyridin-2-yl}phenyl}-1,2,4-oxadiazol-5(4H)-one] | 850 nM |
| CCCCc1nc(C2CC2)n(-c2ncc(OC)cn2)c(=O)c1Cc1ccc(-c2ccccc2-c2noc(=O)[nH]2)nc1 [Example 22, 3-{2-{5-{[4-butyl-2-cyclopropyl-1-(5-methoxypyrimidin-2-yl)-6-oxo-1,6-dihydropyrimidin-5-yl]methyl}pyridin-2-yl}phenyl}-1,2,4-oxadiazol-5(4H)-one] | 1550 nM |
| CCCCc1nc(C2CCC2)n(-c2ncc(OC)cn2)c(=O)c1Cc1ccc(-c2ccccc2-c2noc(=O)[nH]2)nc1 [Example 24, 3-{2-{5-{[4-butyl-2-cyclobutyl-1-(5-methoxypyrimidin-2-yl)-6-oxo-1,6-dihydropyrimidin-5-yl]methyl}pyridin-2-yl}phenyl}-1,2,4-oxadiazol-5(4H)-one] | 1460 nM |
| CCCCc1nc(C2CCC2)n(-c2ncc(OCC)cn2)c(=O)c1Cc1ccc(-c2ccccc2-c2noc(=O)[nH]2)nc1 [Example 25, 3-{2-{5-{[4-butyl-2-cyclobutyl-1-(5-ethoxypyrimidin-2-yl)-6-oxo-1,6-dihydropyrimidin-5-yl]methyl}pyridin-2-yl}phenyl}-1,2,4-oxadiazol-5(4H)-one] | 820 nM |
| CCCCc1nc(C2CCCC2)n(-c2ncc(OCC)cn2)c(=O)c1Cc1ccc(-c2ccccc2-c2noc(=O)[nH]2)nc1 [Example 26, 3-{2-{5-{[4-butyl-2-cyclopentyl-1-(5-ethoxypyrimidin-2-yl)-6-oxo-1,6-dihydropyrimidin-5-yl]methyl}pyridin-2-yl}phenyl}-1,2,4-oxadiazol-5(4H)-one] | 380 nM |
| CCCCc1nc(C2CCCCC2)n(-c2ncc(OCC)cn2)c(=O)c1Cc1ccc(-c2ccccc2-c2noc(=O)[nH]2)nc1 [Example 27, 3-{2-{5-{[4-butyl-2-cyclohexyl-1-(5-ethoxypyrimidin-2-yl)-6-oxo-1,6-dihydropyrimidin-5-yl]methyl}pyridin-2-yl}phenyl}-1,2,4-oxadiazol-5(4H)-one] | 670 nM |
| CCCCc1nc(C)n(-c2ncc(C(F)(F)F)cc2Cl)c(=O)c1Cc1ccc(-c2ccccc2-c2nnn[nH]2)cn1 [Example 32, 5-{{5-[2-(1H-tetrazol-5-yl)phenyl]pyridin-2-yl}methyl}-6-butyl-3-[3-chloro-5-(trifluoromethyl)pyridin-2-yl]-2-methylpyrimidin-4(3H)-one] | 2740 nM |

From patent US8778954B2, “Phenylpyridine derivative and medicinal agent comprising same” (Kowa Company, Ltd., priority 2009, dated 2014)
